Columns and labels:
soybean = test: Greenhouse experiments on soybean (seed treatment, root weight and leaf area); type: in vivo, soybean (variety Cordoba); conditions: sand/perlite with arbuscular mycorrhizal inoculum, 6 weeks greenhouse, average of 3 replicates of 5 plants
Method: Test is performed in the greenhouse. 5 soybean seeds per treatment of the variety Cordoba were sown in 500 ml rose pots (7×7×18 cm) containing a mix of sand and perlite (1:1). 3 replicates were made. The active ingredient was solved in a solvent and seed treatment was performed with a lab equipment.
To inoculate with arbuscular mycorrhizal fungi, 10 g inoculum (Vaminoc; MicroBio Ltd.) were mixed with 1 l of the sand-perlite mixture.
Seeds were covered by 3 cm of LECA (light expanded clay aggregate). Pots were incubated in the greenhouse for 6 weeks at 22° C./15° C. (day/night) and 80% relative humidity. Assessment consisted of root weight and leaf area.
average of 3 replicates of 5 plants

wheat seeds = test: Germination test on wheat (agar plates, climate chamber); type: in vivo, wheat (variety Tuareg); conditions: seed treatment, 10° C. in darkness, after 2 days, average of 5 replicates of 20 seeds
Method: For wheat experiments 20 wheat seeds per treatment of the variety Tuareg were sown on agar plates (1.4% agar). 5 replicates were made. The active ingredient was solved in a solvent and seed treatment was performed with a lab equipment. Plates were incubated at 10° C. in darkness. After 2 days the germination rate and root length were assessed.
(§1) average of 5 replicates of 20 seeds

soybean seeds = test: Germination test on soybean (agar plates, climate chamber); type: in vivo, soybean (variety Cordoba); conditions: seed treatment, 10° C. in darkness, after 4 days, average of 5 replicates of 20 seeds
Method: Test is performed in a climate chamber. 20 soybean seeds per treatment of the variety Cordoba were sown on agar plates (0.8% agar). 5 replicates were made. The active ingredient was solved in a solvent and seed treatment was performed with a lab equipment. Plates were incubated at 10° C. in darkness. After 4 days the germination rate and root length were assessed.
as §1

Winter wheat = test: Field trials 2: winter wheat, Germany (Bergisches Land); type: in vivo, Winter wheat (variety Dekan); conditions: in comparison to the untreated control
Method: b) Field trials 2: Winter wheat: Germany (Bergisches Land):
Seeds of the variety “Dekan” were planted on December with a seed density of 400 seeds/m^2 on a non-fertilized soil. The plot size was 6 m×2.5 m (=15 m^2) and four randomised replicates were used. The application of plant protection products were carried out according to the good agricultural practise. The evaluation of different growth parameters was done during the season.
Dosages Winter Wheat (Bergisches Land):
Base: Insecticide (I): Imidacloprid; Fungicides (F): Fluoxastrobin & Tebuconazole & Prothioconazole.

Row | SMILES | Leaf Area (soybean) | Root weight (soybean) | Germination rate (wheat seeds) | Root length (wheat seeds) | Germination rate (soybean seeds) | Root length (soybean seeds) | yield in dt/ha, in words (Winter wheat)
1 | CC1=CC(O/C=C2/C(=O)OC3c4ccccc4CC23)OC1=O (stereo not shown) [Compound A1] | 35.67 cm^2 | 11.13 g | 27% | 3.04 cm | 63% | 5.19 cm | 
2 | CON=C(C(=O)OC)c1ccccc1CON=C(C)c1cccc(C(F)(F)F)c1 [Trifloxystrobin, reference compound] | 24.80 cm^2 | 18.2 g |  |  |  |  | 
3 | OC(Cc1ccccc1Cl)(Cn1nc[nH]c1=S)C1(Cl)CC1 (stereo not shown) [Prothioconazole, reference compound] | 20.58 cm^2 | 16.8 g |  |  |  |  | 
4 | CCCCCC/C=C\CCCOc1cccc(C(=O)NC2C(O[C@@H]3C(CO)OC(OC4C(CO)O[C@@H](O[C@@H]5C(CO)OC(OC6C(CO)OC(O)C(NC(C)=O)C6O)C(NC(C)=O)C5O)C(NC(C)=O)C4O)C(NC(C)=O)C3O)OC(CO)[C@@H](O)C2O)c1 (stereo partly shown) [Compound B1] | 36.82 cm^2 | 9.19 g | 8% | 2.34 cm | 58% | 5.64 cm | increased yield
5 | CCCCCC/C=C\CCCOc1cccc(C(=O)NC2C(O)[C@H](O)C(CO)O[C@H]2O[C@@H]2C(CO)O[C@@H](O[C@@H]3C(CO)O[C@@H](O[C@@H]4C(CO)O[C@@H](O[C@@H]5C(CO[C@@H]6OC(C)[C@@H](O)C(O)C6O)OC(O)C(NC(C)=O)C5O)C(NC(C)=O)C4O)C(NC(C)=O)C3O)C(NC(C)=O)C2O)c1 (stereo partly shown) [Compound B2] |  |  | 18% | 2.02 cm | 68% | 5.61 cm | 
6 | CCCCCC/C=C\CCCOc1cccc(C(=O)NC2C(O[C@@H]3C(CO)OC(OC4C(CO)O[C@@H](O[C@@H]5C(CO)OC(OC6C(CO[C@@H]7OC(C)C(O)C(O)C7OC)OC(O)C(NC(C)=O)C6O)C(NC(C)=O)C5O)C(NC(C)=O)C4O)C(NC(C)=O)C3O)OC(CO)[C@@H](O)C2O)c1 (stereo partly shown) [Compound B3] |  |  | 17% | 2.18 cm | 59% | 5.13 cm | 
